Source: patent US20210007356A1, “IMIDE DERIVATIVE AND FUNGICIDE CONTAINING SAID DERIVATIVE AS ACTIVE INGREDIENT” (HOKKO CHEMICAL INDUSTRY CO., LTD., priority 2018, published 2021)
Like-named read-outs stand apart in the source and are kept apart here.

Legend:
[1] = system: rice blast fungus (Pyricularia grisea); format: in vivo; conditions: flowable 5,000 ppm, 50 mL irrigation of nursery box, paddy rice; inoculated after 3 weeks; 7 days after inoculation
[2] = system: rice blast fungus (Pyricularia grisea); format: in vivo; conditions: flowable 1,000 ppm, 1 mL dripped in paddy water, inoculated after 1 week, 7 days after inoculation
[3] = system: rice blast fungus (Pyricularia grisea); format: in vivo; conditions: 5 g of granule on nursery box, paddy rice; inoculated after 3 weeks; 7 days after inoculation
[4] = system: barley powdery mildew fungus (Erysiphe graminis); experiment: Test Example 2: control effect against barley powdery mildew by foliage application; format: in vivo; conditions: wettable powder diluted to 100 ppm, 10 mL per pot foliage spray on barley; inoculated day after; 7 days after inoculation
[5] = system: rice sheath blight fungus (Thanatephorus cucumeris); experiment: Test Example 10: control effect against rice sheath blight by water surface application (flowable formulation); conditions: flowable 1,000 ppm, 1 mL dripped in paddy water, inoculated after 1 week, 7 days after inoculation
[6] = system: rice sheath blight fungus (Thanatephorus cucumeris); experiment: Test Example 8: control effect against rice sheath blight by box treatment (granule); conditions: 5 g of granule on nursery box, paddy rice; inoculated after 3 weeks; 7 days after inoculation
Excerpt: (§1) Control value (%)=[1−(lesion height in sprayed plot/lesion height in unsprayed plot)]×100 (d)
From the top of a nursery box, 5 g of a granule prepared according to Formulation Example-4 was applied to a 2.5-leaf-stage paddy rice (variety: Asahi) seedling raised using a nursery box ( 1/10 the area of standard nursery box in size: 12 cm×15 cm×height 4 cm) within a greenhouse. The formulation-treated paddy rice seedling was immediately transplanted at 5 seedlings/pot into a pot ( 1/10000 are in size) filled with paddy soil (flooded). After growing for 3 weeks within a greenhouse, a culture of rice sheath blight fungus (Thanatephorus cucumeris) grown in advance on a rice straw medium was inoculated into the root of the formulation-treated paddy rice, and disease development was promoted in an artificial weather chamber at 26° C. (relative humidity=100%). Seven days after the inoculation, the rice sheath blight lesion height (height from the root) was examined, and the control value (%) was calculated according to formula (d). […] This test was performed with three replications, each consisting of one plot and one pot, per one formulation plot, and its average evaluation value of control effect was determined.

[7] = system: rice sheath blight fungus (Thanatephorus cucumeris); experiment: Test Example 6: control effect against rice sheath blight by box treatment (flowable formulation); conditions: flowable 5,000 ppm, 50 mL irrigation of nursery box, paddy rice; inoculated after 3 weeks; 7 days after inoculation
Description: as §1
By irrigation, 50 mL of a diluted solution (5,000 ppm) of a flowable prepared according to Formulation Example-3 was applied to a 2.5-leaf-stage paddy rice (variety: Asahi) seedling raised using a nursery box ( 1/10 the area of standard nursery box in size: 12 cm×15 cm×height 4 cm) within a greenhouse. The formulation-treated paddy rice seedling was immediately transplanted at 5 seedlings/pot into a pot ( 1/10000 are in size) filled with paddy soil (flooded). After growing for 3 weeks within a greenhouse, a culture of rice sheath blight fungus (Thanatephorus cucumeris) grown in advance on a rice straw medium was inoculated into the root of the formulation-treated paddy rice, and disease development was promoted in an artificial weather chamber at 26° C. (relative humidity=100%). Seven days after the inoculation, the rice sheath blight lesion height (height from the root) was examined, and the control value (%) was calculated according to formula (d). […] This test was performed with three replications, each consisting of one plot and one pot, per one formulation plot, and its average evaluation value of control effect was determined.

Structure (SMILES) | evaluation value of control effect (from control value, number of lesions) [1] | evaluation value of control effect (from control value, number of lesions) [2] | evaluation value of control effect (from control value, number of lesions) [3] | evaluation value of control effect (from control value, lesion area percentage) [4] | evaluation value of control effect (from control value, lesion height) [5] | evaluation value of control effect (from control value, lesion height) [6] | evaluation value of control effect (from control value, lesion height) [7]
Cc1nnsc1C(=O)N(C(=O)c1c(C)nn(C)c1F)c1ccccc1C(C)CC(C)C (centres unmarked) [1-158] | 5 | 5 | 5 | 4 | – | – | –
Cn1cc(C(=O)N(C(=O)c2cccc3nnsc23)c2ccccc2-c2cc(F)c(F)c(F)c2)c(C(F)F)n1 [1-369] | – | – | – | 4 | 5 | 5 | 5
Cc1nc(C(F)F)c(C(=O)N(C(=O)c2cn(C)nc2C(F)F)c2ccccc2-c2cc(F)c(F)c(F)c2)s1 [1-372] | – | – | – | 4 | 5 | 5 | 5
Cn1cc(C(=O)N(C(=O)c2cc(Cl)c(Cl)s2)c2ccccc2-c2cc(F)c(F)c(F)c2)c(C(F)F)n1 [1-373] | – | – | – | 4 | 5 | 5 | 5
CC(C)CC(C)c1sccc1N(C(=O)c1cn(C)nc1C(F)(F)F)C(=O)c1snc(Cl)c1Cl (centres unmarked) [5-1, 3,4-Dichloro-N-{2-(1,3-dimethylbutyl)-3-thienyl}-N-{1-methyl-3-(trifluoromethyl)pyrazole-4-carbonyl}isothiazole-5-carboxamide] | 5 | 5 | 5 | 5 | – | – | –
CCC(C)Oc1cccc(N(C(=O)c2sc(C)nc2C(F)F)C(=O)c2snc(Cl)c2Cl)c1C (centres unmarked) [7-125] | 5 | 5 | 5 | 4 | – | – | –
CCc1nc(C(F)F)c(C(=O)N(C(=O)c2snc(Cl)c2Cl)c2ccccc2C(C)CC(C)C)s1 (centres unmarked) [7-132] | 5 | 5 | 5 | 4 | – | – | –
Cc1nc(C(F)F)c(C(=O)N(C(=O)c2cccc3nnsc23)c2ccccc2C(C)CC(C)C)s1 (centres unmarked) [7-200] | 5 | 5 | 5 | 4 | – | – | –
Cc1nc(C(F)F)c(C(=O)N(C(=O)c2snc(Cl)c2Cl)c2ccsc2C(C)CC(C)C)s1 (centres unmarked) [11-8] | 5 | 5 | 5 | 5 | – | – | –
CC(C)CC(C)c1ccccc1N(C(=O)c1cccnc1C(F)(F)F)C(=O)c1snc(Cl)c1Cl (centres unmarked) [13-1] | 5 | 5 | 5 | 5 | – | – | –
Cc1nc(C(F)F)c(C(=O)N(C(=O)c2cccnc2C(F)F)c2ccccc2C(C)CC(C)C)s1 (centres unmarked) [13-20] | 5 | – | – | 4 | – | – | –
CC(C)CC(C)c1ccccc1N(C(=O)c1cccnc1F)C(=O)c1snc(Cl)c1Cl (centres unmarked) [13-51] | 5 | 5 | 5 | 4 | – | – | –
Cc1ncccc1C(=O)N(C(=O)c1snc(Cl)c1Cl)c1ccccc1C(C)CC(C)C (centres unmarked) [13-52] | 5 | 5 | 5 | 4 | – | – | –
Cc1nnsc1C(=O)N(C(=O)c1cn(C)nc1C(F)F)c1cccc2c1C(C)CC2(C)C (centres unmarked) [25-47] | – | – | – | 4 | 5 | 5 | 5
CC1CC(C)(C)c2cccc(N(C(=O)c3cn(C)nc3C(F)F)C(=O)c3cccc4nnsc34)c21 (centres unmarked) [25-73] | 5 | 5 | 5 | 5 | – | – | –
CCc1nc(C(F)F)c(C(=O)N(C(=O)c2cn(C)nc2C(F)F)c2cccc3c2C(C)CC3(C)C)s1 (centres unmarked) [25-85] | – | – | – | 4 | 5 | 5 | 5
Cc1nc(C(F)(F)F)c(C(=O)N(C(=O)c2cn(C)nc2C(F)F)c2cccc3c2C(C)OC3(C)C)s1 (centres unmarked) [25-92] | – | – | – | 4 | 5 | 5 | 5
CC1CC(C)(C)c2cccc(N(C(=O)c3cn(C)nc3C(F)F)C(=O)c3scnc3C(F)F)c21 (centres unmarked) [25-109] | 5 | 5 | 5 | 4 | – | – | –
CC1CC(C)(C)c2cccc(N(C(=O)c3cn(C)nc3C(F)F)C(=O)c3onc(Cl)c3Cl)c21 (centres unmarked) [25-113] | – | – | – | 4 | 5 | 5 | 5
Cc1nnsc1C(=O)N(C(=O)c1c(C)nn(C)c1Cl)c1cccc2c1C(C)OC2(C)C (centres unmarked) [25-116] | – | – | – | 4 | 5 | 5 | 5
Cc1nn(C)c(Cl)c1C(=O)N(C(=O)c1snnc1C(F)F)c1cccc2c1C(C)OC2(C)C (centres unmarked) [25-117] | 5 | 5 | 5 | – | 5 | 5 | 5
Cc1nn(C)c(Cl)c1C(=O)N(C(=O)c1cccc2nnsc12)c1cccc2c1C(C)OC2(C)C (centres unmarked) [25-118] | 5 | 5 | 5 | – | – | – | –
Cc1nn(C)c(Cl)c1C(=O)N(C(=O)c1onc(Cl)c1Cl)c1cccc2c1C(C)OC2(C)C (centres unmarked) [25-124] | – | – | – | 4 | 5 | 5 | 5
Cc1nc(C(F)F)c(C(=O)N(C(=O)c2snc(Cl)c2Cl)c2cccc3c2C(C)CC3(C)C)s1 (centres unmarked) [26-8] | – | – | – | 5 | 5 | 5 | 5
Cc1nc(C(F)F)c(C(=O)N(C(=O)c2sc(C)nc2C(F)F)c2cccc3c2C(C)CC3(C)C)s1 (centres unmarked) [26-77] | – | – | – | 4 | 5 | 5 | 5
Cc1nc(C(F)F)c(C(=O)N(C(=O)c2cc(Cl)c(Cl)s2)c2cccc3c2C(C)CC3(C)C)s1 (centres unmarked) [26-87] | 5 | 5 | 5 | – | – | – | –
Cc1nc(C(F)F)c(C(=O)N(C(=O)c2cc(Cl)no2)c2cccc3c2C(C)CC3(C)C)s1 (centres unmarked) [26-88] | – | – | – | 4 | 5 | 5 | 5
CC1CC(C)(C)c2cccc(N(C(=O)c3cccnc3C(F)F)C(=O)c3snc(Cl)c3Cl)c21 (centres unmarked) [27-3] | – | – | – | 5 | 5 | 5 | 5
